Legend:
[1] = Bioavailability after administration by inhalation as powder inhalant; settings: in vivo, inhaled or intranasal; administered by inhalation as powder inhalant; based on the fine content of the formulation (FPD, fine particle dose, USP 24 Suppl. 2000)
[2] = Determining the particle size by laser diffraction (Frauenhofer diffraction); format: physicochemical
Excerpt: a) Determining the Particle Size by Laser Diffraction (Frauenhofer Diffraction):
Measuring method: In order to determine the particle size the powder is fed into a laser diffraction spectrometer using a dispersing unit. The median value X50 refers to the particle size below which 50% of the quantity of particles fall. The Q(5.8) value describes the percentage of particles which are less than 5.8 μm in size.
Measuring device: Laser diffraction spectrometer (HELOS), Messrs. Sympatec
Dispersing unit: RODOS/dispersing pressure: 3 bar
Focal length: 100 mm [measuring range: 0.9 . . . 175 μm]
Evaluation method: HRLD (V 4)

[3] = Determining the specific surface area (multi point BET, nitrogen); format: physicochemical; settings: spray-dried microparticles from ethanol solution; 16 point BET
Experimental: b) Determining the Specific Surface Area:
Measuring method: The specific surface is determined by exposing the powder sample to a nitrogen atmosphere at different pressures. Cooling the sample causes the nitrogen molecules to be condensed on the surface of the particles. The quantity of condensed nitrogen is determined by means of the drop in pressure in the system and the surface of the sample is calculated by means of the surface nitrogen requirement and the weight of the sample.
Measuring device: Tri Star Multi Point BET, Messrs. Micromeritics
Heating station: VacPrep 061, Messrs. Micromeritics
Heating: approx. 12 h /40° C.

[4] = Stability of the amorphous state; format: physicochemical; settings: normal conditions (T<50° C., relative humidity<75%); microparticles
[5] = conventional formulations; cited from earlier work

## NCCCC[C@H](NC(=O)[C@@H](Cc1cc(Br)c(O)c(Br)c1)NC(=O)N1CCC(N2Cc3ccccc3NC2=O)CC1)C(=O)N1CCN(c2ccncc2)CC1 [A, 1-[N^2-[3,5-dibromo-N-[[4-(3,4-dihydro-2(1H)-oxoquinazolin-3-yl)-1-piperidinyl]carbonyl]-D-tyrosyl]-L-lysyl]-4-(4-pyridinyl)-piperazine]
[1]
  bioavailability: ~60%
[2]; spray-dried microparticles from 0.5 g (A) in 100 mL ethanol, median particle size, RODOS dispersing pressure 3 bar
  Particle size X50: 1.2 μm
[2]; spray-dried microparticles from ethanol solution, percentage of particles less than 5.8 μm in size
  Particle size Q(5.8): 99.5%
[3]
  Specific surface area Sm: 21.5 m^2/g
[4]
  stability in the amorphous state: stable in the amorphous state
[5]
  oral bioavailability: very limited oral bioavailability
